System: MDCK-mdr1 cells
Test: MDCK-mdr1 permeability assay
Settings: apical to basal, 3.16 μM, 1 hr, 37°C, pH 7.4; % transported

Row | MDCK-mdr1 permeability A to B [%] | SMILES
1 | <1 | Cc1c(C(=O)NCC2CCC(CNS(C)(=O)=O)CC2)nn(-c2ccc(Cl)cc2Cl)c1-c1ccc(Cl)cc1 (centres unmarked) [Compound 7]
2 | <1 | Cc1c(C(=O)NCC2CCC(CNS(N)(=O)=O)CC2)nn(-c2ccc(Cl)cc2Cl)c1-c1ccc(Cl)cc1 (centres unmarked) [Compound 8]

Reference: paper PMC3319116 (Journal of Medicinal Chemistry, 2012)
